Data as given in PMC5053523, “In Vitro Antibacterial Activity of Rhodanine Derivatives against Pathogenic Clinical Isolates” (PLoS ONE, 2016).
Converted amounts (≈) assume the structure as drawn. Where two headings read alike, the source gives them in different places.

Tests used:
Acinetobacter baumannii [1] = experiment: MIC with/without PMBN, Acinetobacter baumannii; format: cell-based
Summary of the method: (§1)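 Sub-MIC colistin or PMBN added to broth MIC tests of rhodanines and reference antibiotics against Gram-negative strains; AcrAB efflux-deficient E. coli SM1411ΔacrAB also tested.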

Acinetobacter baumannii [2] = experiment: Broth microdilution MIC, Acinetobacter baumannii; format: cell-based
[3] = tested on: methicillin-resistant Staphylococcus aureus (MRSA); experiment: Broth microdilution MIC/MBC, MRSA; format: cell-based
B. licheniformis = experiment: Broth microdilution MIC/MBC, B. licheniformis; format: cell-based; details: Bacillus licheniformis; for MBC: read-out: MBC; for MIC: read-out: MIC
[4] = tested on: vancomycin resistant enterococci (VRE); experiment: Broth microdilution MIC50/MIC90, VRE panel; format: cell-based; details: Enterococcus, 10 VRE strains
Acinetobacter baumannii [5] = experiment: MIC with/without sub-MIC colistin, Acinetobacter baumannii; format: cell-based
Summary of the method: as §1

Klebsiella pneumoniae [6] = experiment: MIC with/without sub-MIC colistin, Klebsiella pneumoniae; format: cell-based
Summary of the method: as §1

Candida albicans = experiment: MIC against Candida albicans; format: cell-based; details: table prints none, read-out: MIC
Salmonella Typhimurium = experiment: MIC with/without sub-MIC colistin, Salmonella Typhimurium; format: cell-based
Summary of the method: as §1

K. pneumoniae = experiment: Broth microdilution MIC, K. pneumoniae; format: cell-based
Pseudomonas aeruginosa [7] = experiment: MIC with/without PMBN, Pseudomonas aeruginosa; format: cell-based
Summary of the method: as §1

Bacillus anthracis = experiment: microbe, parasite or virus in culture; format: cell-based
Klebsiella pneumoniae [8] = experiment: MIC with/without PMBN, Klebsiella pneumoniae; format: cell-based
Summary of the method: as §1

Escherichia coli O157:H7 = experiment: MIC with/without sub-MIC colistin, Escherichia coli O157:H7; format: cell-based
Summary of the method: as §1

Pseudomonas aeruginosa [9] = experiment: MIC with/without sub-MIC colistin, Pseudomonas aeruginosa; format: cell-based
Summary of the method: as §1

MRSA USA300 = experiment: MIC against MRSA USA300 with and without 4% human serum albumin; format: cell-based, Staphylococcus aureus; details: Staphylococcus aureus, read-out: MIC against MRSA USA300
Summary of the method: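 MIC measured in tryptic soy broth spiked with 4% HSA and without it, using CLSI broth microdilution on MRSA USA300. Value reported is the lowest concentration preventing bacterial growth.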

[10] = Acinetobacter baumannii, ATCCBAA747
[11] = Acinetobacter baumannii, ATCCBAA19606
[12] = NCIB9375, B. licheniformis Gibson 46 (NCIB 9375) NR-2494
[13] = NRS712, B. licheniformis NRS 712 NR-2499

## O=C(O)[C@H](Cc1ccccc1)N1C(=O)/C(=C/c2cccc(Oc3ccc(Cl)c(Cl)c3)c2)SC1=S [Rh 1]
Acinetobacter baumannii [1]; Acinetobacter baumannii ATCC BAA747, PMBN (+) 4 μg/mL, read-out: MIC
  MIC: >64 µM
Acinetobacter baumannii [1]; Acinetobacter baumannii ATCC BAA19606, PMBN (+) 4 μg/mL, read-out: MIC
  MIC: >64 µM
Acinetobacter baumannii [1]; [10]
  MIC: > 128 µM
Acinetobacter baumannii [1]; [11]
  MIC: > 128 µM
Acinetobacter baumannii [2]; ATCC13345
  MIC: > 128 µM
Acinetobacter baumannii [2]; ATCC17786
  MIC: > 128 µM
[3]; 11 MRSA strains
  MIC50: 8 µM (≈ 4.24 µg/mL)
  MIC90: 8 µM (≈ 4.24 µg/mL)
[3]; MRSA NRS 1
  MBC: 8 µM (≈ 4.24 µg/mL)
  MIC: 8 µM (≈ 4.24 µg/mL)
[3]; MRSA NRS 19
  MBC: 8 µM (≈ 4.24 µg/mL)
  MIC: 8 µM (≈ 4.24 µg/mL)
[3]; MRSA NRS 37
  MBC: 8 µM (≈ 4.24 µg/mL)
  MIC: 8 µM (≈ 4.24 µg/mL)
[3]; MRSA NRS 107
  MBC: 8 µM (≈ 4.24 µg/mL)
  MIC: 8 µM (≈ 4.24 µg/mL)
[3]; MRSA NRS 119
  MBC: 8 µM (≈ 4.24 µg/mL)
  MIC: 8 µM (≈ 4.24 µg/mL)
[3]; MRSA NRS 382
  MBC: 8 µM (≈ 4.24 µg/mL)
  MIC: 8 µM (≈ 4.24 µg/mL)
[3]; MRSA NRS 383
  MBC: 8 µM (≈ 4.24 µg/mL)
  MIC: 8 µM (≈ 4.24 µg/mL)
[3]; MRSA NRS 384
  MBC: 32 µM (≈ 17 µg/mL)
  MIC: 8 µM (≈ 4.24 µg/mL)
[3]; MRSA NRS 385
  MBC: 8 µM (≈ 4.24 µg/mL)
  MIC: 8 µM (≈ 4.24 µg/mL)
[3]; MRSA NRS 386
  MBC: 16 µM (≈ 8.49 µg/mL)
  MIC: 8 µM (≈ 4.24 µg/mL)
[3]; MRSA NRS 387
  MBC: 8 µM (≈ 4.24 µg/mL)
  MIC: 8 µM (≈ 4.24 µg/mL)
B. licheniformis; [12]
  MBC: 2 µM (≈ 1.06 µg/mL)
  MIC: 2 µM (≈ 1.06 µg/mL)
B. licheniformis; [13]
  MBC: 4 µM (≈ 2.12 µg/mL)
  MIC: 4 µM (≈ 2.12 µg/mL)
[4]; VRE, read-out: MIC 90
  MIC90: 8 µM (≈ 4.24 µg/mL)
[4]; read-out: MIC 50
  MIC50: 8 µM (≈ 4.24 µg/mL)
Acinetobacter baumannii [5]; Acinetobacter baumannii ATCC BAA747, colistin (+) […], read-out: MIC
  MIC: >64 µM
Acinetobacter baumannii [5]; Acinetobacter baumannii ATCC BAA19606, colistin (+) […], read-out: MIC
  MIC: >64 µM
Acinetobacter baumannii [5]; [10]
  MIC: > 128 µM
Acinetobacter baumannii [5]; [11]
  MIC: > 128 µM
Klebsiella pneumoniae [6]; Klebsiella pneumoniae ATCC BAA 2146, colistin (+) […]
  MIC: >64 µM
Klebsiella pneumoniae [6]; Klebsiella pneumoniae, BAA2146
  MIC: > 128 µM
Candida albicans; ATCC10231, C. albicans ATCC 10231, unit from abstract
  MIC: > 64 µM
Candida albicans; C. albicans NR 29434, unit from abstract
  MIC: > 64 µM
Candida albicans; C. albicans NR 29435, unit from abstract
  MIC: > 64 µM
Candida albicans; C. albicans NR29437, unit from abstract
  MIC: > 64 µM
Candida albicans; C. albicans NR29438, unit from abstract
  MIC: > 64 µM
Candida albicans; C. albicans NR 29446, unit from abstract
  MIC: > 64 µM
Candida albicans; C. albicans NR 29448, unit from abstract
  MIC: > 64 µM
Candida albicans; C. albicans NR 29449, unit from abstract
  MIC: > 64 µM
Candida albicans; C. albicans NR 29453, unit from abstract
  MIC: > 64 µM
Candida albicans; C. albicans NR 294436, unit from abstract
  MIC: > 64 µM
Salmonella Typhimurium; Salmonella Typhimurium ATCC 700720, colistin (+) […], read-out: MIC
  MIC: >64 µM
Salmonella Typhimurium; Salmonella enterica, ATCC 700720 / TYPHIMURIUM
  MIC: > 128 µM
K. pneumoniae; K. pneumoniae NR-15417
  MIC: >128 µM
K. pneumoniae; Klebsiella pneumoniae
  MIC: > 128 µM
Pseudomonas aeruginosa [7]; Pseudomonas aeruginosa ATCC 9721, PMBN (+) 4 μg/mL, read-out: MIC
  MIC: >64 µM
Pseudomonas aeruginosa [7]; Pseudomonas aeruginosa, ATCC9721
  MIC: > 128 µM
Bacillus anthracis; Bacillus anthracis AMES35
  MBC: 2 µM (≈ 1.06 µg/mL)
  MIC: 2 µM (≈ 1.06 µg/mL)
Bacillus anthracis; Bacillus anthracis UM23
  MBC: 2 µM (≈ 1.06 µg/mL)
  MIC: 2 µM (≈ 1.06 µg/mL)
Bacillus anthracis; Bacillus anthracis Weybridge
  MBC: 2 µM (≈ 1.06 µg/mL)
  MIC: 2 µM (≈ 1.06 µg/mL)
Klebsiella pneumoniae [8]; Klebsiella pneumoniae ATCC BAA 1706, PMBN (+) 4 μg/mL
  MIC: >64 µM
Klebsiella pneumoniae [8]; Klebsiella pneumoniae ATCC BAA 2146, PMBN (+) 4 μg/mL
  MIC: >64 µM
Klebsiella pneumoniae [8]; Klebsiella pneumoniae, BAA1706
  MIC: > 128 µM
Klebsiella pneumoniae [8]; Klebsiella pneumoniae, BAA2146
  MIC: > 128 µM
Escherichia coli O157:H7; Escherichia coli O157:H7 ATCC 35150, colistin (+) […], read-out: MIC
  MIC: >64 µM
Escherichia coli O157:H7; Escherichia coli O157:H7 ATCC 700728, colistin (+) […], read-out: MIC
  MIC: >64 µM
Escherichia coli O157:H7; Escherichia coli, ATCC35150
  MIC: > 128 µM
Escherichia coli O157:H7; Escherichia coli, ATCC700728
  MIC: > 128 µM
Pseudomonas aeruginosa [9]; Pseudomonas aeruginosa ATCC 921, colistin (+) […], read-out: MIC
  MIC: >64 µM
Pseudomonas aeruginosa [9]; Pseudomonas aeruginosa, ATCC921
  MIC: > 128 µM
MRSA USA300; 24 h, Media TSB + 4% HSA
  MIC: > 64 µM
MRSA USA300; Media TSB
  MIC: 8 µM (≈ 4.24 µg/mL)
